Data reported in US20160039879A1, “NOVEL CYCLOSPORIN DERIVATIVES AND USES THEREOF” (S&T Global Inc., priority 2013, published 2016).
pEC50: −log10 of the molar value.

Tests used:
[1] = Stability testing: epimerization of cyclosporin derivatives in methanol, monitored by HPLC; format: physicochemical; settings: Table 9, MeOH at 50° C.-58° C.
HIV-1IIIB = assay: Anti-HIV cytoprotection assay, acute infection model in CEM-SS cells (MTS endpoint); format: cell-based; settings: HIV-1IIIB in CEM-SS cells, 6-day incubation, read-out: Antiviral activity EC50
Method: Anti-HIV activity of cyclosporine derivatives were evaluated by cytoprotection assay in an acute infection model using CEM-SS cells and either HIV-1IIIB or HIV-1 RF. Antiviral activity was determined as a reduction in virus-caused cytopathic effects when compounds prevent virus replication. Cytoprotection and compound cytotoxicity were evaluated using the tetrazollium dye MTS (Promega) to calculate cell viability following virus infection after 6-day incubation (Zhou G., et al., 2011, J. Med. Chem. 27, 7220-31; which is incorporated herein by reference).

[2] = test system: HCV replicon in cell line ET (luc-ubi-neo/ET), Huh7 human hepatoma cell line; assay: HCV subgenomic replicon assay (luciferase end point); format: cell-based; settings: Table 10, HCV replicon, read-out: Antiviral activity EC50

Epimerization % after 168 hours [1] [%]	Compound	further results
0	C/C=C/C[C@@H](C)[C@@H](O)[C@H]1C(=O)N[C@@H](CC)C(=O)N(C)[C@H](CSCCN(C)C)C(=O)N(C)[C@@H](CC(C)(C)O)C(=O)N[C@@H](C(C)C)C(=O)N(C)[C@@H](CC(C)C)C(=O)N[C@@H](C)C(=O)N[C@H](C)C(=O)N(C)[C@@H](CC(C)C)C(=O)N(C)[C@@H](CC(C)C)C(=O)N(C)[C@@H](C(C)C)C(=O)N1C (single isomer, unassigned) [Example 31, isomer B]	
0	C/C=C/C[C@@H](C)[C@@H](O)[C@H]1C(=O)N[C@@H](CC)C(=O)N(C)[C@H](CSCCN(CC)CC)C(=O)N(C)[C@@H](CC(C)(C)O)C(=O)N[C@@H](C(C)C)C(=O)N(C)[C@@H](CC(C)C)C(=O)N[C@@H](C)C(=O)N[C@H](C)C(=O)N(C)[C@@H](CC(C)C)C(=O)N(C)[C@@H](CC(C)C)C(=O)N(C)[C@@H](C(C)C)C(=O)N1C (single isomer, unassigned) [Example 32, isomer B]	
	C/C=C/C[C@@H](C)[C@@H](O)[C@H]1C(=O)N[C@@H](CC)C(=O)N(C)[C@H](CSCCN(C)C)C(=O)N(C)[C@@H](CC(C)(C)O)C(=O)N[C@@H](C(C)C)C(=O)N(C)[C@@H](CC(C)C)C(=O)N[C@@H](C)C(=O)N[C@H](C)C(=O)N(C)[C@@H](CC(C)C)C(=O)N(C)[C@@H](CC(C)C)C(=O)N(C)[C@@H](C(C)C)C(=O)N1C (single isomer, unassigned; isomer b)	pEC50 (HIV-1IIIB): 6.93
	(S)-2-(N,N-Diethylamino)ethylthio-Sar]-3-[N-MeIle]-4-cyclosporin	pEC50 [2]: 5.73

Compound	Epimerization % after 168 hours [1] [%]	further results
CC=CCC(C)C(O)C1C(=O)NC(CC)C(=O)N(C)C(CSCCC(CO)CCC)C(=O)N(C)C(CC(C)(C)O)C(=O)NC(C(C)C)C(=O)N(C)C(CC(C)C)C(=O)NC(C)C(=O)NC(C)C(=O)N(C)C(CC(C)C)C(=O)N(C)C(CC(C)C)C(=O)N(C)C(C(C)C)C(=O)N1C [Example 105, [(S)-((3-(R)-(Hydroxymethyl)hexyl)thio)methyl-Sar]-3-[(γ-hydroxy)-N-MeLeu]-4-cyclosporin]	0	
